Numbers after ± are expanded uncertainties.
Tests used:
[1] = xn = mol fraction of the nth substance listed; conditions: 298 K, 101 kPa, Liquid; for speed of sound: Anton Paar DSA 48; for mass density: Vibrating tube method
[2] = refractive index (Na D-line) (dimensionless); xn = mol fraction of the nth substance listed; conditions: 298 K, 101 kPa, Liquid, ATAGO RX-1000

CCCCOC(C)(C)C [butane, 1-(1,1-dimethylethoxy)-] + CO
Conditions	mass density, [1] [kg/m3]	refractive index, [2]	speed of sound, [1] [m/s]
x1 = 0.0406	783.42 ± 0.22	1.33673 ± 0.00011	1103 ± 1
x1 = 0.0518	782.76 ± 0.22	1.33916 ± 0.00011	1104 ± 1
x1 = 0.0974	780.08 ± 0.22	1.34774 ± 0.0001	1103 ± 1
x1 = 0.0984	779.91 ± 0.22	1.34786 ± 0.0001	1104 ± 1
x1 = 0.1493	777.55 ± 0.21	1.35545 ± 0.0001	1105 ± 1
x1 = 0.198	775.42 ± 0.21	1.36125 ± 0.0001	1107 ± 1
x1 = 0.2051	775.26 ± 0.21	1.36198 ± 0.0001	1107 ± 1
x1 = 0.2448	773.83 ± 0.2	1.3658 ± 9e-05	1108 ± 1
x1 = 0.2974	772.2 ± 0.2	1.37001 ± 9e-05	1109 ± 1
x1 = 0.3373	770.98 ± 0.19	1.37281 ± 9e-05	1109 ± 1
x1 = 0.3581	770.41 ± 0.19	1.37411 ± 8e-05	1109 ± 1
x1 = 0.3783	769.88 ± 0.19	1.37529 ± 8e-05	1109 ± 1
x1 = 0.3922	769.7 ± 0.19	1.37605 ± 8e-05	1111 ± 1
x1 = 0.4633	767.85 ± 0.18	1.37952 ± 8e-05	1111 ± 1
x1 = 0.4954	767.15 ± 0.18	1.38087 ± 7e-05	1113 ± 1
x1 = 0.5003	767.05 ± 0.18	1.38106 ± 7e-05	1111 ± 1
x1 = 0.5598	765.86 ± 0.17	1.38325 ± 7e-05	1112 ± 1
x1 = 0.5955	765.21 ± 0.16	1.3845 ± 7e-05	1114 ± 1
x1 = 0.6138	764.85 ± 0.16	1.38496 ± 7e-05	1113 ± 1
x1 = 0.6463	764.27 ± 0.16	1.38588 ± 6e-05	1113 ± 1
x1 = 0.6737	763.79 ± 0.16	1.3866 ± 6e-05	1114 ± 1
x1 = 0.6923	763.48 ± 0.15	1.38706 ± 6e-05	1114 ± 1
x1 = 0.721	762.99 ± 0.15	1.38773 ± 6e-05	1114 ± 1
x1 = 0.7904	761.8 ± 0.14	1.38914 ± 6e-05	1114 ± 1
x1 = 0.7934	761.75 ± 0.14	1.38918 ± 6e-05	1114 ± 1
x1 = 0.8479	760.78 ± 0.14	1.3901 ± 5e-05	1114 ± 1
x1 = 0.8631	760.5 ± 0.14	1.39032 ± 5e-05	1114 ± 1
x1 = 0.8964	759.86 ± 0.14	1.3907 ± 5e-05	1115 ± 1
x1 = 0.9255	759.26 ± 0.14	1.39109 ± 5e-05	1114 ± 1
